Results from patent US20230165865A1, “HETEROARYLDIHYDROPYRIMIDINE DERIVATIVES AND METHODS OF TREATING HEPATITIS B INFECTIONS” (Janssen Pharmaceutica NV, priority 2018, published 2023).
Like-named read-outs stand apart in the source and are kept apart here.

What was measured:
HepG2.2.15 cells = assay: Cytotoxicity determination in HepG2.2.15 cells (CCK-8 assay); format: cell-based; conditions: 6 days treatment, CCK-8, highest concentration 100 uM
Summary of the method: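 HepG2.2.15 cells (5,000/well, 2% FBS medium) were treated for 6 days, with medium and compound refreshed at day 3. Dosing was an 8-point 1:3 series from 100 uM, in triplicate. Viability was measured by CCK-8 after 2.5 h at 37 °C (A450, 630 nm reference), and CC50 was calculated.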

HBV = assay: Anti-viral assay in HepG2.2.15 cells: anti-HBV activity, HBV DNA in culture medium by qPCR; format: cell-based; conditions: HepG2.2.15 cells, 6 days treatment, HBV DNA by qPCR; read-out: EC50
Summary of the method: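 Cells in 2% FBS medium treated 6 days, compound and medium refreshed at day 3; 8-point 1:3 dilutions in triplicate, top 10 or 1 uM (antiviral) and 100 uM (cytotoxicity). Extracellular viral DNA quantified by qPCR, giving EC50 and CC50.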

[1] = Pharmacokinetic and tissue distribution study via intravenous and oral administration in male C57BL/6 mice; format: in vivo; conditions: for Kp: liver and plasma, po
Method: Male C57BL/6 mice with a weight range of 20-25 g (Hua Fu Kang, China) were used. Animals were fasted overnight and free access to food 4 hours after dosing.
Test compound (correction factor: 1.00) was dissolved in a 20% hydroxypropyl-β-cyclodextrin (HP-β-CD) at a final concentration of 1 mg/ml for the intravenous (IV) formulation and at final concentrations of 0.5 mg/ml for the oral (PO) formulation. The intravenous formulation was dosed at 2 ml/kg to obtain a dose of 2 mg/kg. The oral formulations were dosed at 10 ml/kg to obtain final doses of 5 mg/kg.
Blood samples were taken at 7 and 20 min, 1, 2, 4, 8 and 24 h after intravenous dose administration. Blood and liver samples were taken at 30 min, 1, 2, 4, 8, 12 and 24 h after oral dose administration.
Approximately 0.020 mL blood will be collected into BD blood collection tubes containing K3-EDTA at each time point. Samples were placed immediately on melting ice and plasma was obtained following centrifugation at 4° C. for 5 minutes at approximately 4000×g. Plasma samples were adjusted to pH 3-4 by phosphoric acid and stored at −75±15° C. prior to analysis. The whole process was completed within 1 hour.
Liver samples were collected at adopted time point, and the vial containing the tissues sample was snap-frozen in liquid nitrogen right away and kept at −75±15° C. prior to analysis. All liver samples were weighed and homogenized with phosphoric acid solution (pH to 3-4) by liver weight (g) to phosphoric acid solution volume (mL) ratio 1:4 before analysis.
Plasma and liver samples were analyzed using LC-MS/MS methods. The lower limit of quantification (LLOQ) for plasma was 1.0 ng/ml and for liver was 2.5 ng/g. A non-compartmental analysis using the “Linear up log down” rule was used for all data. A limited pharmacokinetic analysis was performed using Phoenix™ Professional (Version 6.1).

human hepatocytes = assay: Metabolic stability of test compound in human hepatocyte cell; format: in vitro ADME; conditions: comparing with reference 1 and reference 2
Method: (§1) • 1. The cryopreserved human hepatocytes cells were thawed in 37° C. water bath and diluted with pre-warmed incubation medium to a working cell density of 1×10^6 viable cells/mL. • 2. The 198 μL pre-warmed hepatocyte suspensions were spiked with 2 μL of 100 μM compound or reference compound(Verapamil) at a final concentration of 1.0 μM in a 96-well plate. The plate was incubated at 37° C., 900 rpm. All incubations will be performed in singlet. • 3. 25 μL aliquots of well contents were collected at time points of 0, 15, 30, 60, 90 and 120 minutes. The reactions were stopped by the addition of 6-fold volumes of cold acetonitrile with internal standards. • 4. After centrifugation for 25 minutes at 3,220 g. Aliquot of 100 μL of the supernatant was mixed with 100 μL of ultra-pure H2O and then used for LC-MS/MS analysis.
(§2) All calculations were carried out using Microsoft Excel. Peak areas were determined from extracted ion chromatograms. Determine the in vitro half-life (t1/2) of parent compound by regression analysis of the percent parent disappearance vs. time curve.
(§3) The in vitro half-life (in vitro t1/2) is determined from the slope value k:
(§4) Conversion of the in vitro t1/2(in min) into the in vitro intrinsic clearance (in vitro CLint, in μL/min/10^6 cells) is done using the following equation:
(§5) V=incubation volume (0.2 mL);
(§6) N=number of hepatocytes per well (0.2×10^6 cells).
(§7) Conversion of the in vitro t1/2(in min) into the scale-up intrinsic clearance (CLint(liver), in mL/min/kg) was done using the following equation:
(§8) CLint(liver)=kV/N×scaling factor

[2] = as above; format: in vitro ADME; conditions: cryopreserved human hepatocytes (suspension), human hepatocytes
Method: as §1, §2, §3, §4, §5, §6, §7, §8

[3] = Pharmacokinetic study after intravenous and oral administration in male SD rats; format: in vivo
Method: Male SD rats with a weight range of 250-300 g (Si Bei Fu Laboratory Animal Technology Co. Ltd, China) were used. Animals were fasted overnight and free access to food 4 hours after dosing.
Test compound (correction factor: 1.00) was dissolved in a 20% hydroxypropyl-β-cyclodextrin (HP-β-CD) at a final concentration of 1 mg/ml for the intravenous (IV) formulation and at final concentrations of 0.5 mg/ml for the oral (PO) formulation.
The intravenous formulation was dosed at 2 ml/kg to obtain a dose of 2 mg/kg. The oral formulations were dosed at 10 ml/kg to obtain final doses of 5 mg/kg.
Blood samples were taken at 5, 15 and 30 min, 1, 2, 4, 8 and 24 h after intravenous dose administration. Blood samples were taken at 15 and 30 min, 1, 2, 4, 8, 12 and 24 h after oral dose administration.
Approximately 0.20 mL blood will be collected into BD blood collection tubes containing Sodium Fluoride (NaF), Potassium Oxalate (KoX) and K3-EDTA at each time point. Samples were placed immediately on melting ice and plasma was obtained following centrifugation at 4° C. for 5 minutes at approximately 4000×g. Plasma samples were adjusted to pH 3-4 by phosphoric acid and stored at −75±15° C. prior to analysis. The whole process was completed within 1 hour.
Plasma samples were analyzed using LC-MS/MS methods. The lower limit of quantification (LLOQ) for plasma was 1.0 ng/ml.
A non-compartmental analysis using the “Linear up log down” rule was used for all data. A limited pharmacokinetic analysis was performed using Phoenix™ Professional (Version 6.1). Results: See table 10 below for plasma PK results.

[4] = rat plasma, comparing with reference 2

SMILES: CCOC(=O)C1=C(CN2CCN3C(=S)N(CC(C)(C)C(=O)O)CC3C2)NC(c2nccs2)=NC1c1cccc(F)c1Cl (single isomer, unassigned) [Compound 3B, 3-(7-((6-(2-chloro-3-fluorophenyl)-5-(ethoxycarbonyl)-2-(thiazol-2-yl)-3,6-dihydropyrimidin-4-yl)methyl)-3-thioxohexahydroimidazo[1,5-a]pyrazin-2(3H)-yl)-2,2-dimethylpropanoic acid]
- CC50 (HepG2.2.15 cells): 17.8 µM
- EC50 (HBV): 0.0017 µM
- Kp ([1]; male, C57BL/6, mouse, mice, PO, read-out: AUCInf Ratio (Liver/Plasma)): 19.9
- Kp ([1]; male, C57BL/6, mouse, mice, PO, read-out: Cmax Ratio (Liver/Plasma)): 15.3
- clearance ([1]; male, C57BL/6, mouse, mice plasma, IV, nominal 2 mg/kg, read-out: IV Cl): 1.21 L/h/kg
- Cmax ([1]; male, C57BL/6, mouse, mice plasma, PO, dose per compound in table (5.28-9.95 mg/kg)): 2.34 µg/mL
- Liver AUCinf/Dose ([1]; mice liver, PO): 20884 ng·kg·h/g/mg
- Liver Cmax/Dose ([1]; mice liver, PO): 6624 kg·ng/mg/mL
- dose-normalized Cmax and dose-normalized AUCinf in liver, in words ([1]; mice liver, comparing with reference 1 and reference 2): far increased
- IV AUCinf/Dose ([1]; mice plasma, IV, nominal 2 mg/kg): 830.9 ng·kg·h/mg/mL
- PO AUCinf/Dose ([1]; mice plasma, PO): 1049.3 ng·kg·h/mg/mL
- clearance, in words ([1]; mice plasma, comparing with reference 1 and reference 2): far slower clearance
- F ([1]; mice, PO vs IV): 126%
- bioavailability in plasma, in words ([1]; mice, comparing with reference 1 and reference 2): increased bioavailability
- metabolic stability in human hepatocyte cells, in words (human hepatocytes): improved metabolic stability
- half-life at 1 uM ([2]; 1.0 μM, 0-120 min, read-out: T½): 2.91 h
- CLint scaled at 1 uM ([2]; scale-up intrinsic clearance, scaling factor 2544.3, read-out: Clint (liver)): 0.606 L/h/kg
- clearance ([3]; male, SD, rat plasma, IV, nominal 2 mg/kg, read-out: IV Cl): 1.4 L/h/kg
- Cmax ([3]; male, SD, rat plasma, PO, nominal 5 mg/kg): 1.18 µg/mL
- IV AUCinf/Dose ([3]; rat plasma, IV, nominal 2 mg/kg): 771.6 ng·kg·h/mg/mL
- PO AUCinf/Dose ([3]; rat plasma, PO): 389.2 ng·kg·h/mg/mL
- clearance, in words [3, 4]: far slower clearance
- dose-normalized AUC (AUCinf/Dose), in words [3, 4]: over two-folds higher
- F ([3]; rat, PO vs IV): 50.3%
- bioavailability (F (%)), in words ([3]; rat, comparing with reference 2): increased (or equal) bioavailability
